Measurements reported in patent EP1652531A1, “Use of GLP-1 or Analogues in Treatment of Stroke” (Eli Lilly & Company, priority 1998, dated 2006).

Legend:
[1] = system: STC-1 cells; settings: exposure of STC-1 cells (Abella et al., 1994); cited from earlier work
[2] = system: NIDDM patients; test: Infusion for three hours at each meal during the day, blood glucose in NIDDM patients (Example 2); settings: five NIDDM patients
[3] = system: patients having non-insulin dependent diabetes (NIDDM); test: Overnight continuous subcutaneous infusion, blood glucose in NIDDM patients (Example 1); settings: five NIDDM patients; subcutaneous infusion 1.2 pmol/kg/hr for ten hours during the night

12-O-tetradecanoylphobol-13-acetate [TPA]
release of GLP-1 [1]: significant increases

CC[C@H](C)[C@H](NC(=O)[C@H](Cc1ccccc1)NC(=O)[C@H](CCC(=O)O)NC(=O)[C@H](CCCCN)NC(=O)[C@H](C)NC(=O)[C@H](C)NC(=O)[C@H](CCC(N)=O)NC(=O)CNC(=O)[C@H](CCC(=O)O)NC(=O)[C@H](CC(C)C)NC(=O)[C@H](Cc1ccc(O)cc1)NC(=O)[C@H](CO)NC(=O)[C@H](CO)NC(=O)[C@@H](NC(=O)[C@H](CC(=O)O)NC(=O)[C@H](CO)NC(=O)[C@@H](NC(=O)[C@H](Cc1ccccc1)NC(=O)[C@@H](NC(=O)CNC(=O)[C@H](CCC(=O)O)NC(=O)[C@H](C)NC(=O)[C@@H](N)Cc1c[nH]cn1)[C@@H](C)O)[C@@H](C)O)C(C)C)C(=O)N[C@@H](C)C(=O)N[C@@H](Cc1c[nH]c2ccccc12)C(=O)N[C@@H](CC(C)C)C(=O)N[C@H](C(=O)N[C@@H](CCCCN)C(=O)NCC(=O)N[C@@H](CCCNC(=N)N)C(N)=O)C(C)C [GLP-1(7-36) amide]
untoward side effects [2]: No untoward side effects
hypoglycemia [3]: without inducing hypoglycemia in any of the patients
